Data published in paper PMC4896225 (Journal of immunology (Baltimore, Md. : 1950), 2016).

Biological target: gp96 (Canis lupus, UniProt P41148)
Assay: gamma-32P ATP ATPase assay with purified gp96
Assay type: biochemical

Chain of gp96 (P41148 22-804): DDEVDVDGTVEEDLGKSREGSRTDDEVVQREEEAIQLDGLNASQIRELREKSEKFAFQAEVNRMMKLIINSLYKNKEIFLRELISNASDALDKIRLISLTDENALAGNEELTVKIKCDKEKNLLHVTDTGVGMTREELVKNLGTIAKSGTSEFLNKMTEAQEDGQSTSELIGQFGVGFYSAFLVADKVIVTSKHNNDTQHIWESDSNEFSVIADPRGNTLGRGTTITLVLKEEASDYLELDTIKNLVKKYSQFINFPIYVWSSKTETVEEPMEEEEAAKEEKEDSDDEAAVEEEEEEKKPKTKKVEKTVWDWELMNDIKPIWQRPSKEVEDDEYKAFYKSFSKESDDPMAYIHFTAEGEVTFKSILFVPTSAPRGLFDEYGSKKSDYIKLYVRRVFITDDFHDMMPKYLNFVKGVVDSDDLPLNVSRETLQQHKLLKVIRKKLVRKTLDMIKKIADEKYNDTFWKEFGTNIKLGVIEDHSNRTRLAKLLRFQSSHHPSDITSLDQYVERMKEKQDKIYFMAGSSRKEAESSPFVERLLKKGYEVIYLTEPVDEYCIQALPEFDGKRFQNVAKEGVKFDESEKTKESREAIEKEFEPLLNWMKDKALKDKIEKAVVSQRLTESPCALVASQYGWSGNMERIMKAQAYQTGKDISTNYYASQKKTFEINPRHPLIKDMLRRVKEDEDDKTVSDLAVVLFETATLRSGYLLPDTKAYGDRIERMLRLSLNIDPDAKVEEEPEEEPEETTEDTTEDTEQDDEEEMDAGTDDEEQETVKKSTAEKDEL

C/C(=N\NC(=N)N)c1cc(NC(=O)CCCCCCCCC(=O)Nc2cc(/C(C)=N/NC(=N)N)cc(/C(C)=N/NC(=N)N)c2)cc(/C(C)=N/NC(=N)N)c1 [Semapimod, N, N’-bis [3,5-diacetylphenyl] decanediamide tetrakis [amidinohydrazone]]
IC50: ~300 nM
